Ends that are not written are not given here.
What was measured:
C2C12 cells = assay: Chicken prelamin A peptide treatment of proliferating C2C12 cells, desmin immunostaining; assay type: cell-based, mouse; conditions: 40 ug/ml
Protocol: The chicken homologue of the human prelamin A peptide (SEQ ID NO: 17) was chemically synthesized and farnesylated and carboxymethylated. The lyophilized peptide was dissolved at 10 mg/ml in 50% DMSO/50% water. Actively proliferating C2C12 cells were treated with the chicken prelamin A peptide at 40 ug/ml on plastic chamber slides in complete DMEM media containing 10% fetal bovine serum (FBS). After 20 hours the cells were fixed in methanol/acetone and then immunostained with a rabbit anti-desmin primary antibody and a Texas Red conjugated anti-rabbit secondary antibody. Cover slips were mounted with media containing DAPI.

NIH3T3-L1 preadipocytes = assay: Chicken prelamin A peptide treatment of preadipocytes, oil red O staining; assay type: cell-based; conditions: 72 hours
Text: Based on the change in morphology and the oil red 0 staining, the chicken peptide induces the differentiation of NIH3T3-L1 cells into adipocytes.

[1] = test system: Mouse F9 embryonic carcinoma cells; assay: Peptide treatment of F9 embryonic carcinoma cells, lamin A/C, keratin 8, DAPI staining; assay type: cell-based; conditions: two days
Protocol: Mouse F9 embryonic carcinoma cells were treated with the prelamin A peptide for two days (FIGS. 19D-19F) and then were fixed, immunostained for lamin A/C expression (FIGS. 19A and 19D) and keratin 8 expression (FIGS. 19B and 19E), and stained for DNA with DAPI (FIGS. 19C and 19F). Keratin 8 and lamin A/C co-localize in all cells. […] Both keratin 8 and lamin A/C display distinct perinuclear filamentous staining, with greater expression towards the center of cell colonies than the periphery, in untreated F9 cells. […] The treated cells display a DNA morphology consistent with expansion of DNA into […]. Furthermore, cells at the edges of the treated colonies display altered cell morphology and are extending away from the colony, and intercellular spacing in the treated cell colonies has clearly been expanded.

H9c2 cells = assay: Western blots of peptide-treated H9c2 cells; assay type: cell-based, rat; conditions: Western blot
Protocol: Western blots. Cells were lysed in cell buffer (1% Triton X-100, 20 mM Tris-Cl, 7.5, 10 mM NaCl, 5 mM MgC2) containing 46 μg/ml leupeptin, 10 μg/ml aprotinin, and 250 μg/ml AE-BSF for 10 min on ice. Total protein concentration was determined using BioRad Protein Assay reagent and equal amounts of total protein were loaded in each lane. Western blots were probed with anti-lamin A/C (Novocastra, Santa Cruz), antiprelamin A (Santa Cruz) and anti-myogenin (Santa Cruz) primary antibodies and HRP-conjugated secondary antibodies (Santa Cruz, Pierce). Secondary antibody detection was performed using Super signal HRP (Pierce).
Higher order intra- and intercellular organization is clearly evident in visible striations in the desmin staining pattern. […] As in serum starvation induced differentiation of H9c2 myoblasts (26), an increase in the myogenic transcription factor myogenin is seen upon peptide treatment (FIG. 5F).

ES cells = assay: Peptide treatment of embryonic stem cells, staining for tubulin, pre peptide, DAPI; assay type: cell-based; conditions: 1 μg/ml, 6 hours
Text: ES cells were contacted with the prelamin A pre peptide (courtesy of Dr. Chris Hogan, University of Colorado).
FIGS. 14A-14C show a 10× control. The ES cells have round distinct nuclei and are expressing tubulin. The prelamin A signal is primarily in extracellular aggregates, though nuclear staining can also be detected.

[2] = test system: neonatal rat cardiac myocytes (NRMCs); assay: Peptide treatment of neonatal rat cardiac myocytes (NRMCs); assay type: cell-based
Text: Consequently, the prelamin A pre peptide not only determines tissue organization amongst the same type of cells, but also intracellular organization between different cell and tissue types.

[3] = test system: H9c2 rat cardiac myoblasts; assay: Prelamin A pre peptide treatment of H9c2 cardiac myoblasts, desmin immunostaining; assay type: cell-based
Protocol: (§1) Cells and transfections. C2C12 and H9C2 cells were cultured in Growth Media (GM) defined as DMEM containing 10% (vol/vol) fetal bovine serum supplemented with Lglutamine, HEPES, non-essential amino acids and antibiotics. Effectene (Qiagen) was used to transfect plasmid DNA into cells following the manufacturer's instructions. Nondifferentiating transfected cells were allowed to continue growing for an additional 24 h before being processed for microscopy, or until confluent for protein isolation.
(§2) Microscopy. Cells were fixed in cold 70% methanol/30% acetone solution for 10 min. Immunostaining was performed with anti-human lamin A/C (Novocastra), anti-prelamin A (Santa Cruz), or anti-desmin (Sigma) primary antibodies followed by the appropriate fluorescently labeled secondary antibody and mounting in anti-fade media containing DAPI (Vector Laboratories). Images were captured on an Olympus IX81 inverted microscope with Olympus objectives (U PLAN APO 10× oil N.A. 0.40, UAPO 40× oil N.A. 1.35, TIRFM PLAN APO 60× oil N.A. 1.45 WD 0.15 mm) and a Hamamatsu ORCA IIER monochromatic CCD camera and Intelligent Imaging Slidebook software. Images were also acquired on an Olympus IX70 Infinity inverted microscope with Olympus objectives (100× U PLAN APO, N.A. 1.35, W.D. 0.1 mm, oil; 20× U PLAN Fluorite, N.A. 0.5) with a Photometrics Quantix cooled CCD camera using Deltavision software. Signal strengths for the individual channels were adjusted using Adobe Photoshop strictly for improving the overall signal to noise ratio.
These cells were previously considered to be of cardiac lineage in part because they express heart-specific L-type calcium channels after prolonged exposure to retinoic acid during serum starvation induced differentiation (24). However, differentiation of H9c2 cells in culture has previously led to fusion and multinucleate myotube formation more resembling skeletal myotubes than cardiac myocytes.
Higher order intra- and intercellular organization is clearly evident in visible striations in the desmin staining pattern. […]

Mouse neural stem cells = assay: Peptide treatment of mouse neural stem cells, lamin A/C, tubulin, DAPI staining; assay type: cell-based; conditions: two days
Protocol: Mouse neural stem cells were treated with the prelamin A peptide for two days (FIGS. 18D-18F) and were then fixed, immunostained for lamin A/C expression (FIGS. 18A and 18D) and tubulin expression (FIGS. 18B and 18E), and stained for DNA with DAPI (FIGS. 18C and 18F). […] Tubulin expression in untreated cells is cytoplasmic and relatively diffuse, and tubulin is excluded from the cell nucleus. In peptide-treated cells a distinct filamentous tubulin staining pattern is seen initiating at the cell nucleus and extending into the cell body.

[4] = test system: adult rabbit cardiac myocytes; assay: Peptide treatment of adult rabbit cardiac myocytes; assay type: cell-based; conditions: differentiated cells
C2C12 myoblasts = assay: Prelamin A pre peptide treatment of mitotically dividing C2C12 myoblasts, microscopy/immunostaining; assay type: cell-based, mouse
Protocol: as §1
Peptide synthesis. The farnesylated and carboxymethylated prelamin A C-terminal peptide N-LLGNSSPRTQSPQNC-C (SEQ ID NO:2) was generated by FMOC solid phase peptide synthesis, and farnesylated and carboxymethylated (Biosynthesis). The peptide was analyzed on a C4 column and by laser desorption mass spectrometry. The lyophilized peptide was resuspended in DMSO.
as §2
The farnesylated and carboxymethylated prelamin A pre peptide was chemically synthesized, and mitotically dividing C2C12 myoblasts were treated with the peptide at 1, 10 and 25 μg/ml in complete growth media containing 10% FBS.

neuroblastoma = assay: Peptide application to neuroblastoma cells (data not shown); assay type: cell-based
fibroblasts = assay: Peptide exposure of homogeneous fibroblast cultures; assay type: cell-based

VLGGAGPRRQAPAPQGC (listed as Gallus gallus) [chicken prelamin A peptide, chicken homologue of the human prelamin A peptide, chemically synthesized]
cytoskeleton (C2C12 cells; 20 hours, desmin staining): cytoskeleton formation | cell cycle (C2C12 cells; within 20 hours, DMEM 10% FBS): induced cell cycle arrest | morphogenesis and fusion (C2C12 cells; within 20 hours, DMEM 10% FBS): myoblast morphogenesis and fusion | differentiation (NIH3T3-L1 preadipocytes): differentiated into adipocytes | oil red O staining (NIH3T3-L1 preadipocytes): stained positively with oil red 0

N-LLGNSSPRTQSPQNC-C (not fully specified (residue 15); also: farnesylated, carboxymethylated; listed as Homo sapiens) [prelamin A pre peptide, farnesylated and carboxymethylated prelamin A C-terminal peptide (human, 15 amino acids), made by FMOC solid phase peptide synthesis]
cell and DNA morphology, intercellular organization, lamin A/C and keratin 8 expression [1]: induces changes in cell morphology, DNA morphology, intercellular organization, and lamin A/C and keratin 8 expression | cell proliferation [1]: severely inhibits cell proliferation | lamin A/C expression (H9c2 cells): modest increases | myogenin expression (H9c2 cells): increase | prelamin A expression (H9c2 cells): modest increases | DNA morphology (ES cells): changed drastically | secretion of pre peptide (ES cells): extensive secretion of the pre peptide | tubulin expression (ES cells): no longer any tubulin expression | cell fusion ([2]; 10 ug/ml, six hours): a number of cells can be seen to have fused | cell morphology ([2]; 10 ug/ml, six hours): show an elongated morphology | morphogenesis and fusion ([2]; 25 ug/ml, 18 hours): more extensive myocytes morphogenesis and fusion is observed | fusion into myosheets ([2]; 72 hours of exposure): fused into beating myosheets | effect on fibroblasts and interaction between cell types ([2]; fibroblasts adjacent to NRMCs, tubulin and actin staining): induces the differentiation of fibroblasts and fusion/cross-talk between different cell types | tissue formation ([3]; after 48 hours): formed a tissue sheet of mono- and binucleated cells interconnected by an extensive ECM | time to extracellular matrix formation ([3]; cardiac myoblasts contacted with peptide): ≤ 5 min | extracellular matrix secretion ([3]; within six hours, growth media containing 10% FBS): secrete an extensive desmin extracellular matrix (ECM) | cell appearance (Mouse neural stem cells): taken on the appearance of nerve cells, including glial cells | cell morphology and tubulin expression (Mouse neural stem cells): induced changes in cell morphology and tubulin expression | cell proliferation (Mouse neural stem cells): inhibited cell proliferation | cytoskeletal effect [4]: cytoskeletal rearrangements were induced and there was a dissolution of the actin cytoskeleton | cell morphogenesis (C2C12 myoblasts; 1 μg/ml, six hours, complete growth media containing 10% FBS): cells have undergone morphogenesis into a bipolar configuration | desmin localization (C2C12 myoblasts; 1 μg/ml, six hours, growth media 10% FBS): desmin can be seen localizing to the interface with the nuclear lamina and forming a filamentous skeleton at the locations where cells interact | desmin expression (C2C12 myoblasts; 6 hours after peptide exposure): desmin expression is either upregulated or redistributed | prelamin A matrix formation (C2C12 myoblasts; 6 hours after peptide exposure): prelamin A forms intra- and intercellular matrices | cell fusion (C2C12 myoblasts; 6 hours of peptide treatment): cell fusion can be seen | cell fusion / tissue formation (C2C12 myoblasts; 72 hours, depending on cell density): the cells have fused to form either sheets or myotubes | time to induction of differentiation after contact with the peptide (C2C12 myoblasts; absence of conventional differentiation factors or cell confluence): within minutes | fusion of closely spaced myoblasts and cell death (C2C12 myoblasts; closely spaced myoblasts): induces fusion of closely spaced myoblasts into a syncicium which eventually results in cell death | effect of higher peptide concentrations (C2C12 myoblasts; higher concentrations of the peptide): cell fusion and myotube formations | concentrations inducing myoblast differentiation (C2C12 myoblasts; in vitro): micromolar and even nanomolar concentrations | ECM excretion (C2C12 myoblasts; low concentrations of the peptide): excrete ECM | effect on cell proliferation (C2C12 myoblasts; peptide at 1, 10 and 25 μg/ml): dose-dependant effect on cell proliferation | polarization of nuclei (C2C12 myoblasts; peptide at 1, 10 and 25 μg/ml): induces the kidney-shaped polarization of nuclei | effect of lower peptide concentrations (C2C12 myoblasts; topical exposure, lower peptide concentrations): differentiation and morphogenesis representing a number of different cell types, and to intercellular interactions and tissue formation | effect on neuroblastoma cells (neuroblastoma): arrest and aggregation | structural effect on fibroblasts (fibroblasts): underwent structural reorganization

From patent US8318490B2, “Prelamin A pre peptide as a universal stem cell differentiation signal” (The Regents of the University of Colorado, a Body Corporate, priority 2006, dated 2012)
